Data published in publication PMC4979471 (Cell Death Discovery, 2015).
Like-named read-outs stand apart in the source and are kept apart here.

Assays:
Experiment in all cases: Kinase selectivity, P33-radiolabeled assay
Format in all cases: biochemical
Settings in all cases: 10 μM ATP
ACK1 = target: T1, ACK1 (Homo sapiens, UniProt Q07912)
T1 construct: purchased Reaction Biology Corp
Summary of the method: (§1)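 Percent residual kinase activity versus DMSO is reported. Conditions: compound at 10 μM, ATP at 10 μM, n = 2.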

AKT1 = target: T2, AKT1 (Homo sapiens, UniProt P31749)
T2 construct: purchased Reaction Biology Corp
Summary of the method: as §1

CSK = target: T3, CSK (Homo sapiens, UniProt P41240)
T3 construct: purchased Reaction Biology Corp
Summary of the method: as §1

GSK3a = target: T4, GSK3a (Homo sapiens, UniProt P49840)
T4 construct: purchased Reaction Biology Corp
Summary of the method: as §1

MST3/STK24 = target: T5, MST3/STK24 (Homo sapiens, UniProt Q9Y6E0)
T5 construct: purchased Reaction Biology Corp
Summary of the method: as §1

NEK6 = target: T6, NEK6 (Homo sapiens, UniProt Q9HC98)
T6 construct: purchased Reaction Biology Corp
Summary of the method: as §1

PKAcg = target: T7, PKAcg (Homo sapiens, UniProt P22612)
T7 construct: purchased Reaction Biology Corp
Summary of the method: as §1

PKCeta = target: T8, PKCeta (Homo sapiens, UniProt P24723)
T8 construct: purchased Reaction Biology Corp
Summary of the method: as §1

PKCnu/PRKD3 = target: T9, PKCnu/PRKD3 (Homo sapiens, UniProt O94806)
T9 construct: purchased Reaction Biology Corp
T9 sequence (O94806 1-890): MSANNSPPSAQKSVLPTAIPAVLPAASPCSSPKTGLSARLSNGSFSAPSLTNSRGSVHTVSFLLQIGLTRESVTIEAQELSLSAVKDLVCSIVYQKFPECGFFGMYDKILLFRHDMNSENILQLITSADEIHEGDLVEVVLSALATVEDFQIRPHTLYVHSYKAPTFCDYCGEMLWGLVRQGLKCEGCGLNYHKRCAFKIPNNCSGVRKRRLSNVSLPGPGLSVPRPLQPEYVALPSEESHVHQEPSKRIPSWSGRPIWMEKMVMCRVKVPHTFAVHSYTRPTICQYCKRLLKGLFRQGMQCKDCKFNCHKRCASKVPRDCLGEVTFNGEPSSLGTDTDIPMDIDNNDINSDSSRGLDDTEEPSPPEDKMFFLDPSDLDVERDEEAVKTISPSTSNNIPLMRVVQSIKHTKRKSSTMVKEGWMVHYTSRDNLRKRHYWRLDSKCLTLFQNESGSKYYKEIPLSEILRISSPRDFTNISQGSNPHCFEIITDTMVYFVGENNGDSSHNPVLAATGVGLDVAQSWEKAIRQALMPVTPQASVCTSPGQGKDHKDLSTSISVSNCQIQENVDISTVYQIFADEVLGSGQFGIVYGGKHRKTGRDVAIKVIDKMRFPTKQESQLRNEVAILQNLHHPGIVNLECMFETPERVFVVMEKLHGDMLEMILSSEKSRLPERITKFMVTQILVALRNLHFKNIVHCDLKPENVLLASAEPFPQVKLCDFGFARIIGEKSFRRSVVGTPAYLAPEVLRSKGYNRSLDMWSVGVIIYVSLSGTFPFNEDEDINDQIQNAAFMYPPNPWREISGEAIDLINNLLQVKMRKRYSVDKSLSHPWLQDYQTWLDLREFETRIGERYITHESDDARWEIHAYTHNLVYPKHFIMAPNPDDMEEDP
Summary of the method: as §1

PLK3 = target: T10, PLK3 (Homo sapiens, UniProt Q9H4B4)
T10 construct: purchased Reaction Biology Corp
Summary of the method: as §1

STK33 = target: T11, STK33 (Homo sapiens, UniProt Q9BYT3)
T11 construct: purchased Reaction Biology Corp
Summary of the method: as §1

TRKB = target: T12, TRKB (Homo sapiens, UniProt Q16620)
T12 construct: purchased Reaction Biology Corp
Summary of the method: as §1

TXK = target: T13, TXK (Homo sapiens, UniProt P42681)
T13 construct: purchased Reaction Biology Corp
T13 sequence (P42681 1-527): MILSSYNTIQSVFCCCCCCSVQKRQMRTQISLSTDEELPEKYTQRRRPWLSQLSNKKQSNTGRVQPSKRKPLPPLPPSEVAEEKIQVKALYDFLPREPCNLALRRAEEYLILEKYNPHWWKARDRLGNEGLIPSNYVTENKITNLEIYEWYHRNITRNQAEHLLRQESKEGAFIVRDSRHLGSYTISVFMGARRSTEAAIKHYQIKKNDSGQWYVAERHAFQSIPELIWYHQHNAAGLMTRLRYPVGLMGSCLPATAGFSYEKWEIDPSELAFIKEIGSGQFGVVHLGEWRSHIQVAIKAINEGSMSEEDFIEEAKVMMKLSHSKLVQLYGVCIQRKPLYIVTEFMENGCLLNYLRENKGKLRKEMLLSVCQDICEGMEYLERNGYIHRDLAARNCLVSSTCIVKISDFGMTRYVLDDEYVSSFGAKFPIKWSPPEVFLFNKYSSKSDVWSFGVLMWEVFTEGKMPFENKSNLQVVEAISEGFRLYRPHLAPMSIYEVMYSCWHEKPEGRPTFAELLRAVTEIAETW
Summary of the method: as §1

[1] = read-out: % Enzyme Activity (relative to DMSO controls) AVG
[2] = read-out: % Enzyme Activity (relative to DMSO controls) Data 1
[3] = read-out: % Enzyme Activity (relative to DMSO controls) Data 2

T11 sequence (Q9BYT3 whole entry): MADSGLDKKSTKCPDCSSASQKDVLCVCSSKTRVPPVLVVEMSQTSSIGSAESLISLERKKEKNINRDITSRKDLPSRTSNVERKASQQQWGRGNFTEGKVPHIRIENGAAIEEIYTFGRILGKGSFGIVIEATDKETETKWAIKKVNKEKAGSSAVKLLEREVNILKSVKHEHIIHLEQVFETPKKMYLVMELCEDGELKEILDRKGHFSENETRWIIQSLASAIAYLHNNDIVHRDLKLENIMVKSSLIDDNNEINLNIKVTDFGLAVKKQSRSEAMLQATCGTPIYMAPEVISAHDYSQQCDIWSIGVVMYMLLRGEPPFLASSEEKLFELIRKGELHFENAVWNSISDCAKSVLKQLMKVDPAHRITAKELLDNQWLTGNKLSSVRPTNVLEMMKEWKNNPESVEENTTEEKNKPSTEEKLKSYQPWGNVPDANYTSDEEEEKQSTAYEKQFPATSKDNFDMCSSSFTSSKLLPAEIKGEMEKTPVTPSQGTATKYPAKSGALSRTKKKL
T12 sequence (Q16620 32-822): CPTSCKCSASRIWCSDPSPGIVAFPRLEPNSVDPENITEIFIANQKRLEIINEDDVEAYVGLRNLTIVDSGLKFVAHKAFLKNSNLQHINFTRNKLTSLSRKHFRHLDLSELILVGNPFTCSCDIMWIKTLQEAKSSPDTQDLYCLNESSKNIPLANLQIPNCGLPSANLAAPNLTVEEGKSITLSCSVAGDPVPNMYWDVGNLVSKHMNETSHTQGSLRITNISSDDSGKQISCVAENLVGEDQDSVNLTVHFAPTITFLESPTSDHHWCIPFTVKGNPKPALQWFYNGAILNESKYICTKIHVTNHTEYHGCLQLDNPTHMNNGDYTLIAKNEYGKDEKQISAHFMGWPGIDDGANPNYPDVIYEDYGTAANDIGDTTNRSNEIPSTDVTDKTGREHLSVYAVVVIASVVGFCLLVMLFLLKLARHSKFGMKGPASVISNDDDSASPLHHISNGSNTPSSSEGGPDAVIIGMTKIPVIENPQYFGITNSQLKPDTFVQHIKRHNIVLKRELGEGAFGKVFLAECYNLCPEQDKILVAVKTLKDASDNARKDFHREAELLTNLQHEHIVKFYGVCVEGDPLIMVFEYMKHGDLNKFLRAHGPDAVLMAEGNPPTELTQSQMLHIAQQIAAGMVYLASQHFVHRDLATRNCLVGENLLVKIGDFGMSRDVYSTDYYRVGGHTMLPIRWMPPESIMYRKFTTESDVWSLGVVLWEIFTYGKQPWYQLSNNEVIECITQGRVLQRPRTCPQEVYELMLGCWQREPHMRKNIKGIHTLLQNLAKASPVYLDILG
T7 sequence (P22612 whole entry): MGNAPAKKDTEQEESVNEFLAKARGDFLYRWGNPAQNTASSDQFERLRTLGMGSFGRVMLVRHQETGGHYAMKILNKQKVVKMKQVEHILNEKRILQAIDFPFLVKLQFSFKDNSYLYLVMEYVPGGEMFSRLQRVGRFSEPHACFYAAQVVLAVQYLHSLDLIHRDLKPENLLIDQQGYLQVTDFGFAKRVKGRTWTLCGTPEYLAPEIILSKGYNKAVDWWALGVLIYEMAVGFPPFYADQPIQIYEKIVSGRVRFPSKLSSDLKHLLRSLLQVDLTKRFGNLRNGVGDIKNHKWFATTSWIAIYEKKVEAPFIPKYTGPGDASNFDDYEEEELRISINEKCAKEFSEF
T3 sequence (P41240 whole entry): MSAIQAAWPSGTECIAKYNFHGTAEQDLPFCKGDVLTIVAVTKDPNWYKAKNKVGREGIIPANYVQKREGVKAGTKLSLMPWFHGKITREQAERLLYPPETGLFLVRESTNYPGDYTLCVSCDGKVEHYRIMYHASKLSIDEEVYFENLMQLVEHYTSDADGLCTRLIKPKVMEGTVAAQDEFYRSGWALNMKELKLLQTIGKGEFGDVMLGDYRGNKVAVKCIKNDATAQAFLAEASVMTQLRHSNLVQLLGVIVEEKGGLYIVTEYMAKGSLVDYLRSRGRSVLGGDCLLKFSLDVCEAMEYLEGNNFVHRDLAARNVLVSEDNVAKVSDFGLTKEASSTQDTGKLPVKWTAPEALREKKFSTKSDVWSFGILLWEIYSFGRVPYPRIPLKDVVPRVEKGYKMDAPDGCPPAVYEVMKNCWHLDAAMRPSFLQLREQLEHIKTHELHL
T6 sequence (Q9HC98 whole entry): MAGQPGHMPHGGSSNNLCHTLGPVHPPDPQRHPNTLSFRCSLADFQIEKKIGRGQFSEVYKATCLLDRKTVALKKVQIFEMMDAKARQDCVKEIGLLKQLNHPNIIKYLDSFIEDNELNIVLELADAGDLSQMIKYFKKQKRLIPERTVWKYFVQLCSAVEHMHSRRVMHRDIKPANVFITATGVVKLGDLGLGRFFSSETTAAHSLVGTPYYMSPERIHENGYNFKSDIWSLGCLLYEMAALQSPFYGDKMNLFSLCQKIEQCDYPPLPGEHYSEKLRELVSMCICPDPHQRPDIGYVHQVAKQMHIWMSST
T2 sequence (P31749 whole entry): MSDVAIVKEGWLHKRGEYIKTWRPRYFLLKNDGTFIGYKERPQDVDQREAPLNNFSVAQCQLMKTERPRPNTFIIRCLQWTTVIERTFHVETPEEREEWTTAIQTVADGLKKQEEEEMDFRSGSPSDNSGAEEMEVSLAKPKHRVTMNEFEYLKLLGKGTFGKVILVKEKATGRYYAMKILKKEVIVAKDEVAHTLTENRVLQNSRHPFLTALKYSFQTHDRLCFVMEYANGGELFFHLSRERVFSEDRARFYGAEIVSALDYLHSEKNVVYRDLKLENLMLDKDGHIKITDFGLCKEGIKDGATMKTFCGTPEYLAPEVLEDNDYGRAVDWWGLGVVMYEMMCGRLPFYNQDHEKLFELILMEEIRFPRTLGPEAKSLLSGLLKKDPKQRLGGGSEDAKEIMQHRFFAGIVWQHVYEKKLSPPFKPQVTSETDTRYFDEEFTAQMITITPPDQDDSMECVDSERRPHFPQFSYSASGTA
T1 sequence (Q07912 whole entry): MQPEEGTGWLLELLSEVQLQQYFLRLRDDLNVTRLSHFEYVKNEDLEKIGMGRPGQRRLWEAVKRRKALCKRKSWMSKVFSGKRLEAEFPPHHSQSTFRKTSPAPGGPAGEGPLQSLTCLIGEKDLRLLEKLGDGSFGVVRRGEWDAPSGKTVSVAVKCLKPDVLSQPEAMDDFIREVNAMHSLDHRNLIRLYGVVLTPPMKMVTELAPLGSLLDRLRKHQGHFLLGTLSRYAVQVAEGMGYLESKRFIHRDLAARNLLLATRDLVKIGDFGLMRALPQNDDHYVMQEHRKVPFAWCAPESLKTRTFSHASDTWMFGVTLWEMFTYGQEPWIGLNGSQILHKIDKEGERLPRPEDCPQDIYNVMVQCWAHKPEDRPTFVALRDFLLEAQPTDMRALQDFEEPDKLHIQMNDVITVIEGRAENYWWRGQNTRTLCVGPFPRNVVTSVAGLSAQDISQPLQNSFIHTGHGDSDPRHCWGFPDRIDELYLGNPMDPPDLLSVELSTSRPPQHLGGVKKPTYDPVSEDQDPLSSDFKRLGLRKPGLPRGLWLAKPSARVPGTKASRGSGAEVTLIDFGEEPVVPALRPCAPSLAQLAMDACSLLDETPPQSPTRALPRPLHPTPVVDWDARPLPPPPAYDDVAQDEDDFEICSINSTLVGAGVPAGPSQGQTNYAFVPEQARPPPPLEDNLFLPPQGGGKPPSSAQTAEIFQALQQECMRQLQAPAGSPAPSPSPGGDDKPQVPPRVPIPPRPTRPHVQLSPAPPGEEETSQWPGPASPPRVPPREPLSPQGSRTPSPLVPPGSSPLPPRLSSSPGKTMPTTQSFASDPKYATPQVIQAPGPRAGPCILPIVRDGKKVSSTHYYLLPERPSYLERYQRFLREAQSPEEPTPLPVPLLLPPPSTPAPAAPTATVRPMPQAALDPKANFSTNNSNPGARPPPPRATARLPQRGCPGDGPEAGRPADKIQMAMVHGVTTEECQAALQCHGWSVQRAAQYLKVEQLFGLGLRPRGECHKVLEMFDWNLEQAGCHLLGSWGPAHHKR
T5 sequence (Q9Y6E0 whole entry): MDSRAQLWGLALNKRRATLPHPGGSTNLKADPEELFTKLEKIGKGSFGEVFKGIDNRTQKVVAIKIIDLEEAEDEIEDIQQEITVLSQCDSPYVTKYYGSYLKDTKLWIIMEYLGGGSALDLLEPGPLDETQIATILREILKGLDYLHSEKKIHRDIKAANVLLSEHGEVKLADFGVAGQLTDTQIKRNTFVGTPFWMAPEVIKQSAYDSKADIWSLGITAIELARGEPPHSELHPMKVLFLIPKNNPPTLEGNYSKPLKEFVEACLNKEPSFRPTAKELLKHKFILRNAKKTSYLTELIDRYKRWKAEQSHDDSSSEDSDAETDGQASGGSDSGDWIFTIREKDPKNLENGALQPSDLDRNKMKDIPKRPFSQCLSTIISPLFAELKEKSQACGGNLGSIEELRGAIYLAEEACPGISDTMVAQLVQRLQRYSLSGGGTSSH
T10 sequence (Q9H4B4 whole entry): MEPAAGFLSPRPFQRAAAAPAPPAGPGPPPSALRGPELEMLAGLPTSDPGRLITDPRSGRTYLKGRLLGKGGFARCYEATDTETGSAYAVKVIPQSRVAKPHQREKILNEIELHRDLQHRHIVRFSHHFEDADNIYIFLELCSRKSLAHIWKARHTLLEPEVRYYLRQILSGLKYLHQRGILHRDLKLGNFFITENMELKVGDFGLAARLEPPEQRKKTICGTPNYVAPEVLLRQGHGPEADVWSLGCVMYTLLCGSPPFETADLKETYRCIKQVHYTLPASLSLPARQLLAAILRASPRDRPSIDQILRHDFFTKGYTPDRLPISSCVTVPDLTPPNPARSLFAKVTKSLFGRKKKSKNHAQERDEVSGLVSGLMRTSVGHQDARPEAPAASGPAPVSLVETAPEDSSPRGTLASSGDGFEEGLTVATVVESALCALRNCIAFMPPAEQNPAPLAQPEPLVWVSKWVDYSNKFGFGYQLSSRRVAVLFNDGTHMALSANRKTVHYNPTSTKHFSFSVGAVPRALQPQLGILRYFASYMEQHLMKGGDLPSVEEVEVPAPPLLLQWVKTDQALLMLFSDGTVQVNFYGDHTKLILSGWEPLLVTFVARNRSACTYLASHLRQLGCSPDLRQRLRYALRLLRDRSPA

SMILES: CC(C)(C)C(=O)N1N=CC[C@H]1c1ccccc1 [GSK′963]
- remaining activity at 10 µM (ACK1; [1]): 82.3%
- remaining activity at 10 µM (ACK1; [2]): 84.2%
- remaining activity at 10 µM (ACK1; [3]): 80.3%
- remaining activity at 10 µM (AKT1; [1]): 100%
- remaining activity at 10 µM (AKT1; [2]): 102%
- remaining activity at 10 µM (AKT1; [3]): 98.8%
- remaining activity at 10 µM (CSK; [1]): 104%
- remaining activity at 10 µM (CSK; [2]): 104%
- remaining activity at 10 µM (CSK; [3]): 103%
- remaining activity at 10 µM (GSK3a; [1]): 111%
- remaining activity at 10 µM (GSK3a; [2]): 107%
- remaining activity at 10 µM (GSK3a; [3]): 114%
- remaining activity at 10 µM (MST3/STK24; [1]): 87.4%
- remaining activity at 10 µM (MST3/STK24; [2]): 87.3%
- remaining activity at 10 µM (MST3/STK24; [3]): 87.5%
- remaining activity at 10 µM (NEK6; [1]): 97.9%
- remaining activity at 10 µM (NEK6; [2]): 100%
- remaining activity at 10 µM (NEK6; [3]): 95.5%
- remaining activity at 10 µM (PKAcg; [1]): 122%
- remaining activity at 10 µM (PKAcg; [2]): 123%
- remaining activity at 10 µM (PKAcg; [3]): 122%
- remaining activity at 10 µM (PKCeta; [1]): 113%
- remaining activity at 10 µM (PKCeta; [2]): 112%
- remaining activity at 10 µM (PKCeta; [3]): 114%
- remaining activity at 10 µM (PKCnu/PRKD3; [1]): 101%
- remaining activity at 10 µM (PKCnu/PRKD3; [2]): 103%
- remaining activity at 10 µM (PKCnu/PRKD3; [3]): 100%
- remaining activity at 10 µM (PLK3; [1]): 92.5%
- remaining activity at 10 µM (PLK3; [2]): 95.5%
- remaining activity at 10 µM (PLK3; [3]): 89.5%
- remaining activity at 10 µM (STK33; [1]): 103%
- remaining activity at 10 µM (STK33; [2]): 104%
- remaining activity at 10 µM (STK33; [3]): 102%
- remaining activity at 10 µM (TRKB; [1]): 101%
- remaining activity at 10 µM (TRKB; [2]): 101%
- remaining activity at 10 µM (TRKB; [3]): 100%
- remaining activity at 10 µM (TXK; [1]): 96.3%
- remaining activity at 10 µM (TXK; [2]): 95.7%
- remaining activity at 10 µM (TXK; [3]): 96.8%
